Target: T1, complement C5a receptor 1 (C5aR1) (Homo sapiens, UniProt P21730)
T1 construct: β-galactosidase fragment (PathHunter enzyme complementation); host or cells: CHO-K1 (PathHunter CHO-K1 C5aR1 β-arrestin cell line)
T1 sequence (P21730 1-350): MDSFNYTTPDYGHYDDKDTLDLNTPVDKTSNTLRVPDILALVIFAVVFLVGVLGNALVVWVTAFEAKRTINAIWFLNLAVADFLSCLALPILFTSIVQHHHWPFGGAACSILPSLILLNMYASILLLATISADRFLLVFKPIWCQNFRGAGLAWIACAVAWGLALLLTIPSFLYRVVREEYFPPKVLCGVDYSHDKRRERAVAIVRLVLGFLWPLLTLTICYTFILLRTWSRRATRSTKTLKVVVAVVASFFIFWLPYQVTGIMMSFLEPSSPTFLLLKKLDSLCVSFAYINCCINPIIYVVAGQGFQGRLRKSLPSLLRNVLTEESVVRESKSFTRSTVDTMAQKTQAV
Test: β-arrestin recruitment via C5aR1 activation in live CHO-K1 cells (PathHunter), agonist mode
Assay type: cell-based
Details: not given; call rule not given here
Procedure: (§1) Exemplary compounds were evaluated for classical GPCR β-arrestin recruitment via complement C5a receptor 1 (C5aR1) activation in live CHO-K1 cells. This cell line expresses two fragments of the […] protein coupled to β-arrestin and C5aR1. Complementation of the two fragments allows for the assessment of both C5aR1 agonism and antagonism. Recombinant hC5a (EC90) was used as the competing natural agonist against disclosed compounds (more information on the expanded protocol and cell line can be found on the manufacturer's website: PathHunter® CHO-K1 C5aR1 β-arrestin cell line, DiscoverX, Catalog No. 93-0557C2). […] IC50 ranges: A: IC50≤500 nM; B: 500 nM<IC50≤5 uM; C: 5 uM<IC50≤100 uM; D: IC50>100 uM.

| Compound | [Agonist] B-arrestin2 recruitment: Average EC50 (nM) |
| --- | --- |
| Cc1ccc2c(c1)nc(C1CCN(c3c(C)cccc3F)CC1)c(=O)n2Cc1ncccc1C(F)(F)F [142B, 3-(1-(2-Fluoro-6-methylphenyl)piperidin-4-yl)-6-methyl-1-((3-(trifluoromethyl)pyridin-2-yl)methyl)quinoxalin-2(1H)-one] | Non-Active |

Same assay, conditions: at 10 μM

| Compound | [Agonist] B-arrestin2 recruitment: Average EC50 (nM) |
| --- | --- |
| Cc1cccc(F)c1[C@H]1CC[C@H](c2cc3nccnc3n(Cc3ncccc3C(F)(F)F)c2=O)C1 [200B, 7-((1S,3S)-3-(2-Fluoro-6-methylphenyl)cyclopentyl)-5-((3-(trifluoromethyl)pyridin-2-yl)methyl)pyrido[2,3-b]pyrazin-6(5H)-one] | Non-Active at 10 μM |
| Cc1cnc2cc([C@H]3CC[C@H](c4c(C)ccc5c4cnn5C)CC3)c(=O)n(Cc3ncccc3C(F)(F)F)c2n1 [compound 218, 7-((1r,4r)-4-(1,5-Dimethyl-1H-indazol-4-yl)cyclohexyl)-3-methyl-5-((3-(trifluoromethyl)pyridin-2-yl)methyl)pyrido[2,3-b]pyrazin-6(5H)-one] | Non-Active at 10 μM |

Target: T1, complement C5a receptor 1 (C5aR1)
Test: β-arrestin recruitment via C5aR1 activation in live CHO-K1 cells (PathHunter), antagonist mode
Assay type: cell-based
Details: not given
Procedure: as §1

| Compound | IC50 [µM] |
| --- | --- |
| Cc1ccccc1N1CCC(c2cc3nccnc3n(Cc3nccnc3C)c2=O)CC1 [compound 109, 5-((3-Methylpyrazin-2-yl)methyl)-7-(1-(o-tolyl)piperidin-4-yl)pyrido[2,3-b]pyrazin-6(5H)-one] | 0.5 to 5 |
| Cc1cnc2cc(C3CCN(c4c(C)cccc4F)CC3)c(=O)n(Cc3cccnc3OC(F)(F)F)c2n1 [compound 100, 7-(1-(2-Fluoro-6-methylphenyl)piperidin-4-yl)-3-methyl-5-((2-(trifluoromethoxy)pyridin-3-yl)methyl)pyrido[2,3-b]pyrazin-6(5H)-one] | < 0.5 |

Same assay, conditions: antagonist mode; recombinant hC5a (EC90) as competing natural agonist; live CHO-K1 cells; read-out: [Antagonist] B-arrestin2 recruitment: Average IC50

| Compound | IC50 [µM] |
| --- | --- |
| Cc1cnc2cc(C3CCN(c4nnccc4C)CC3)c(=O)n(Cc3ncccc3C(F)(F)F)c2n1 [compound 115, 3-Methyl-7-(1-(4-methylpyridazin-3-yl)piperidin-4-yl)-5-((3-(trifluoromethyl)pyridin-2-yl)methyl)pyrido[2,3-b]pyrazin-6(5H)-one] | 0.5 to 5 |
| Cc1cnc2cc(C3CCN(c4cncnc4C)CC3)c(=O)n(Cc3ncccc3C(F)(F)F)c2n1 [compound 114, 3-Methyl-7-(1-(4-methylpyrimidin-5-yl)piperidin-4-yl)-5-((3-(trifluoromethyl)pyridin-2-yl)methyl)pyrido[2,3-b]pyrazin-6(5H)-one] | 5 to 100 |
| Cc1ncc2cc(N3CCN(c4c(C)cccc4F)CC3)c(=O)n(Cc3ncccc3C(F)(F)F)c2n1 [compound 119, 6-(4-(2-Fluoro-6-methylphenyl)piperazin-1-yl)-2-methyl-8-((3-(trifluoromethyl)pyridin-2-yl)methyl)pyrido[2,3-d]pyrimidin-7(8H)-one] | 0.5 to 5 |
| Cc1cnc2cc([C@H]3CC[C@@H](c4c(C)cccc4F)CC3)c(=O)n(Cc3ncccc3C(F)(F)F)c2n1 [121b, 7-(cis-4-(2-Fluoro-6-methylphenyl)cyclohexyl)-3-methyl-5-((3-(trifluoromethyl)pyridin-2-yl)methyl)pyrido[2,3-b]pyrazin-6(5H)-one] | 0.5 to 5 |
| Cc1cnc2cc(C3CCN(c4ccnnc4C)CC3)c(=O)n(Cc3ncccc3C(F)(F)F)c2n1 [compound 113, 3-Methyl-7-(1-(3-methylpyridazin-4-yl)piperidin-4-yl)-5-((3-(trifluoromethyl)pyridin-2-yl)methyl)pyrido[2,3-b]pyrazin-6(5H)-one] | > 100 |
| Cc1cccc(F)c1N1CCC(c2cc3ncncc3n(Cc3nccnc3C(F)(F)F)c2=O)CC1 [compound 82, 7-(1-(2-Fluoro-6-methylphenyl)piperidin-4-yl)-5-((3-(trifluoromethyl)pyrazin-2-yl)methyl)pyrido[3,2-d]pyrimidin-6(5H)-one] | > 100 |
| Cc1c(C2CCN(c3ccccc3C(F)(F)F)CC2)c(=O)n(Cc2ncccc2F)c2nccnc12 [compound 83, 5-((3-Fluoropyridin-2-yl)methyl)-8-methyl-7-(1-(2-(trifluoromethyl)phenyl)piperidin-4-yl)pyrido[2,3-b]pyrazin-6(5H)-one] | < 0.5 |
| Cc1cccc(F)c1N1CCC(c2cc3nccnc3n(Cc3cncnc3C(F)(F)F)c2=O)CC1 [compound 116, 7-(1-(2-Fluoro-6-methylphenyl)piperidin-4-yl)-5-((4-(trifluoromethyl)pyrimidin-5-yl)methyl)pyrido[2,3-b]pyrazin-6(5H)-one] | 0.5 to 5 |
| Cc1cccc(F)c1N1CCC(c2cc3nccnc3n(Cc3ccccc3C(F)(F)F)c2=O)CC1 [compound 1, 7-(1-(2-Fluoro-6-methylphenyl)piperidin-4-yl)-5-(2-(trifluoromethyl)benzyl)pyrido[2,3-b]pyrazin-6(5H)-one] | < 0.5 |
| Cc1cccc(F)c1N1CCC(c2cc3nccnc3n(Cc3nccnc3C(F)F)c2=O)CC1 [compound 122, 5-((3-(Difluoromethyl)pyrazin-2-yl)methyl)-7-(1-(2-fluoro-6-methylphenyl)piperidin-4-yl)pyrido[2,3-b]pyrazin-6(5H)-one] | < 0.5 |
| Cc1cccc(F)c1N1CCN(c2c(C)c3nccnc3n(Cc3nccnc3C(F)(F)F)c2=O)CC1 [compound 97, 7-(4-(2-Fluoro-6-methylphenyl)piperazin-1-yl)-8-methyl-5-((3-(trifluoromethyl)pyrazin-2-yl)methyl)pyrido[2,3-b]pyrazin-6(5H)-one] | 0.5 to 5 |
| Cc1cccc(F)c1N1CCC(c2cc3nccnc3n(Cc3ncccc3OC(F)F)c2=O)CC1 [compound 98, 5-((3-(Difluoromethoxy)pyridin-2-yl)methyl)-7-(1-(2-fluoro-6-methylphenyl)piperidin-4-yl)pyrido[2,3-b]pyrazin-6(5H)-one] | < 0.5 |
| Cc1cnc2cc(C3CCN(c4c(C)cccc4F)CC3)c(=O)n(Cc3ncccc3C(F)(F)F)c2c1 [compound 90, 3-(1-(2-Fluoro-6-methylphenyl)piperidin-4-yl)-7-methyl-1-((3-(trifluoromethyl)pyridin-2-yl)methyl)-1,5-naphthyridin-2(1H)-one] | 5 to 100 |
| Cc1cnc2cc(C3CCN(c4c(C)cccc4F)CC3)c(=O)n(Cc3nccnc3C)c2n1 [compound 106, 7-(1-(2-Fluoro-6-methylphenyl)piperidin-4-yl)-3-methyl-5-((3-methylpyrazin-2-yl)methyl)pyrido[2,3-b]pyrazin-6(5H)-one] | < 0.5 |
| COc1ccnc(F)c1N1CCC(c2cc3ncc(C)nc3n(Cc3nccnc3C(F)(F)F)c2=O)CC1 [compound 80, 7-(1-(2-Fluoro-4-methoxypyridin-3-yl)piperidin-4-yl)-3-methyl-5-((3-(trifluoromethyl)pyrazin-2-yl)methyl)pyrido[2,3-b]pyrazin-6(5H)-one] | 0.5 to 5 |
| COc1ccnc(F)c1N1CCC(c2cc3nccnc3n(Cc3ncccc3C(F)(F)F)c2=O)CC1 [compound 79, 7-(1-(2-Fluoro-4-methoxypyridin-3-yl)piperidin-4-yl)-5-((3-(trifluoromethyl)pyridin-2-yl)methyl)pyrido[2,3-b]pyrazin-6(5H)-one] | 0.5 to 5 |
| Cc1cnc2cc([C@H]3CC[C@@H](c4c(C)cccc4F)CC3)c(=O)n(Cc3nccnc3C(F)(F)F)c2n1 [99a, 7-(cis-4-(2-Fluoro-6-methylphenyl)cyclohexyl)-3-methyl-5-((3-(trifluoromethyl)pyrazin-2-yl)methyl)pyrido[2,3-b]pyrazin-6(5H)-one] | 0.5 to 5 |
